Source: patent publication US7041869B2, “Transgenic luciferase mouse” (Sloan-Kettering Institute for Cancer Research, priority 2002, dated 2006)
Entries after “also recorded” stand apart in the source; their conditions may differ.

What was measured:
PDGF-driven gliomas = experiment: Elux bioluminescence imaging of PDGF-induced gliomas during treatment; format: in vivo, mice
Procedure: As an illustration of the use of Elux in somatic cell gene transfer models, the inventors have generated gliomas in mice harboring the Elux transgene. The Elux transgenic line was crossed with the Ntv-a transgenic mouse line. These doubly transgenic mice were then infected at birth with RCAS-PDGF. The mice were injected intracranially with one microliter containing 10^4 DF-1 cells, a chicken fibroblast cell line that are infected with and producing the RCAS-PDGF virus. This vector encodes the PDGF B coding region downstream of the env gene and expressed from the LTR on a message that splices out the viral genes. The injection passed through the striatum, just anterior to the ventricle, until the tip of the needle just touches the skull base. The producer cells survived for only a few days within the parenchyma of the mouse brain and during this time they produced virus and infected adjacent cells expressing the receptor for RCAS, tv-a. The mice were then observed for the development of signs of intracranial pathology including weight loss, lethargy, and macrocephaly. These mice were analyzed for expression of luciferase by i.v. injection with luciferin and imaging for bioluminescence with a CCD camera as discussed in detail below.
Animals were weighed prior to the acquisition session for proper dosage calculations. […] The solution was sterilized by filtration through 0.22 μm syringe filter. Individual dosages were drawn into sterile insulin syringes for each animal based on the body weight. Prior to the injection, individual syringes were kept in dark.
Oxygen flow was turned on and set for 1 l/min flow. […] For the induction of anesthesia, the animal was placed into the induction chamber and general activity and respiration rate were monitored. […]
Bioluminescent acquisition was performed according to the IVIS™ Imaging System (Xenogen). […] It was selected empirically, based on prior in vitro characterization of luminescence of transfected cells and the intensity of luminescence signal obtained from the current study. […]

[1] = tested on: PDGF signaling in glial cell culture; conditions: previously demonstrated; cited from earlier work

For `Clc1ccc(Nc2nnc(Cc3ccncc3)c3ccccc23)cc1` [PTK787], the “loss in light emission (bioluminescence)” value (PDGF-driven gliomas; Ntv-a/Elux bitransgenic mice with RCAS-PDGF gliomas, 25 mg/kg i.p. daily, in 24–36 hours) is listed as 50%, the “relative falloff of light production across tumors of various light outputs” value (PDGF-driven gliomas; four consecutive mice with PDGF-induced gliomas, bioluminescence quantified daily during treatment) is listed as “essentially parallel responses of decreases in light emission over time; also recorded: proportionally similar” and the “effect on PDGF signaling in glial cell culture” value [1] is listed as “capable of reversing the effects of PDGF signaling”.
